# According to US11352350B2, “IRAK degraders and uses thereof” (Kymera Therapeutics, Inc., priority 2018, dated 2022):
# Where two headings read alike, the source gives them in different places.
# Assays:
# [1] = test system: IL-6; experiment: IL-6 secretion in hPBMC using R848 stimulation; assay type: cell-based, human; details: Homo sapiens, 20 h
# [2] = biological target: T1, IRAK4 (Homo sapiens (Human), UniProt Q9NWZ3); experiment: hPBMC IRAK4 degradation flow assay; assay type: cell-based; details: hPBMC monocyte
# T1 sequence (Q9NWZ3 whole entry): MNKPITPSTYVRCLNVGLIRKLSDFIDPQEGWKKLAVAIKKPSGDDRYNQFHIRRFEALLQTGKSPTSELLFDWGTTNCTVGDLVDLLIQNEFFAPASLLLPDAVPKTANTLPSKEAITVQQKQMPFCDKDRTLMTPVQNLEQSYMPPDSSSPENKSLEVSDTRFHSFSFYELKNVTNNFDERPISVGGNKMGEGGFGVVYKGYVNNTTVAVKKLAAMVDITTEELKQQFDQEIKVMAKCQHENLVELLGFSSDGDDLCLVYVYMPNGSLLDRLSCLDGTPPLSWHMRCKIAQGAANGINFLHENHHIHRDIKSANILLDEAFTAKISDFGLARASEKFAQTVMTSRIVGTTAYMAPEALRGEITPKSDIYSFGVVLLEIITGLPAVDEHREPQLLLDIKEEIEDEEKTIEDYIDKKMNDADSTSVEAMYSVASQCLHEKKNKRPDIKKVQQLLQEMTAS
# Experimental: hPBMC IRAK4 degradation flow assay. Frozen PBMCs were thawed into RPMI with 10% FBS and allowed to recover. On the same day as thawed, PBMCs were plated in 96 well plate, 90 uL per well. Compound plates were prepared and a 10 point, 5-fold dilution was performed with a final DMSO concentration of 0.1%. Compound 10 μL per well was added, sealed and incubated at 37° C., 5% C02 for 20 hours (for 4 hour treatment, compounds were prepared and added the following day). […] Cells were spun down and washed two times with PBS/0.5% BSA, aspirated to pellet and placed into −80° C. freezer until further processing for flow. On the flow run day, PBMC plates were thawed and samples were transferred to PCR plates. The pre-perm staining cocktail (CD3 Ax488/CD8 BUV805/CD14 BUV395/CD16/56 BV711/CD19 BV785) was added to samples and incubated for 30 minutes at room temperature. Samples were washed two times and permeabilized with methanol for 10 minutes at 4° C. […] Samples were washed two times with PBS/BSA and run on a BD LSRFortessa. Mononuclear cells are gated by SSCH/FSCH and single cells. Monocytes are then gated through CD14 positive gate and lymphocytes are gated through CD14 negative gate. To determine absolute DC50s and max degradation values, MFI values were normalized to DMSO max and 20 hour 10 μM min control. Twenty hour dose curves were calculated using a 4 parameter logistic regression curve fit, no constraints (Top doses were removed if hook effects were observed and the bottom was constrained to 0).
# [3] = biological target: T1, IRAK4; experiment: IRAK4 MSD degradation in OCI-LY10; assay type: cell-based
# Procedure, shortened: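 OCI-LY10 cells treated with 8-point 1:3 dilutions (top 1 to 10 μM final) for 4 to 24 h at 37° C. Lysate IRAK4 measured by MSD sandwich immunoassay (2H9 capture, Y279 detection, SULFO-TAG anti-rabbit). DC50 from three-parameter logistic fit.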
# [4] = test system: OCI-LY10; experiment: CTG Cell Viability Assay - OCI-LY10; assay type: cell-based, human; details: Homo sapiens, OCI-LY10, 4 days, read-out: CTG Cell Viability Assay - OCI-LY10: Average external-IC50
# Procedure, shortened: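 OCI-LY10 cells exposed to 9-dose, 1:3 dilutions from 10 μM top (0.2% DMSO) for 4 days at 37° C, 5% CO2. Viability by CellTiter-Glo luminescence; IC50 from three-parameter logistic fit.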
# [5] = 20 hrs, read-out: IRAK4 degradation in hPBMC monocyte: DC50
# [6] = OCI-LY10, 4 hrs, read-out: IRAK4 MSD degradation in OCI-LY10 at 4 hrs: DC50
# [7] = 20 hr, flow assay, read-out: IRAK4 degradation in hPBMC monocyte at 20 hr: Average external Abs DC50
# [8] = OCI-LY10, 4 hrs, MSD, read-out: IRAK4 MSD degradation in OCI-LY10 at 4 hrs: Average external-Abs DC50
SMILES,"IC50 ([1]; hPBMC, R848 as stim, t = 20 h)","DC50 [2, 5]","DC50 [3, 6]",also measured
Cn1c(=O)n(C2CCC(=O)NC2=O)c2cccc(CCOC3CC4(CCN(C[C@H]5CC[C@H](n6cc(NC(=O)c7cnn8ccc(N9C[C@H]%10C[C@@H]9CO%10)nc78)c(C(F)F)n6)CC5)CC4)C3)c21 (some centres unmarked) [I-469],< 1 nM,< 10 nM,< 10 nM,
Cn1c(=O)n(C2CCC(=O)NC2=O)c2cccc(CCCCN3CCN(C[C@H]4CC[C@H](n5cc(NC(=O)c6cnn7ccc(N8C[C@H]9C[C@@H]8CO9)nc67)c(C(F)F)n5)CC4)CC3)c21 (some centres unmarked) [I-471],< 1 nM,< 10 nM,< 10 nM,
Cn1c(=O)n(C2CCC(=O)NC2=O)c2cccc(CCC(=O)N3CCC4(CC3)CN(C[C@H]3CC[C@H](n5cc(NC(=O)c6cnn7ccc(N8C[C@H]9C[C@@H]8CO9)nc67)c(C(F)F)n5)CC3)C4)c21 (some centres unmarked) [I-414],< 1 nM,,,"IC50 ([4]; OCI-Ly10, 96 h): > 1000 nM; DC50 [2, 7]: < 10 nM; DC50 [3, 8]: < 10 nM"
CN(C[C@H]1CC[C@H](C2N=C(NC(=O)c3cnn4ccc(N5C[C@H]6C[C@@H]5CO6)nc34)C(C(F)F)=N2)CC1)C1CCC2(CC1)CC(Cc1cccc3c1n(C)c(=O)n3C1CCC(=O)NC1=O)C2 (some centres unmarked) [I-554],< 1 nM,< 10 nM,10 to 100 nM,"IC50 ([4]; OCI-Ly10, 96 h): > 1000 nM"
Cn1c(=O)n(C2CCC(=O)NC2=O)c2cccc(CCC3CCN(C[C@H]4CC[C@H](n5cc(NC(=O)c6cnn7ccc(N8C[C@H]9C[C@@H]8CO9)nc67)c(C(F)F)n5)CC4)CC3)c21 (some centres unmarked) [I-487],< 1 nM,< 10 nM,10 to 100 nM,"IC50 ([4]; OCI-Ly10, 96 h): > 1000 nM"
CN(CC1CCN(c2cccc3c2C(=O)N(C2CCC(=O)NC2=O)C3=O)CC1)C[C@H]1CC[C@H](n2cc3cc(NC(=O)c4cccc(C(F)(F)F)n4)c(C(C)(C)O)cc3n2)CC1 (some centres unmarked) [I-317],1 to 10 nM,,,"IC50 ([4]; OCI-Ly10, 96 h): > 1000 nM; DC50 [2, 7]: 10 to 100 nM; DC50 [3, 8]: 10 to 100 nM; DC50 ([3]; OCI-LY10, 24 hrs, MSD, read-out: IRAK4 MSD degradation in OCI-LY10 at 24 hrs: Average external-Abs DC50): 10 to 100 nM"
Cn1c(=O)n(C2CCC(=O)NC2=O)c2cccc(CN3CC4(CCN(Cc5ccc(-n6cc(NC(=O)c7cnn8ccc(N9C[C@H]%10C[C@@H]9CO%10)nc78)c(C(F)F)n6)cc5)CC4)C3)c21 (some centres unmarked) [I-464],1 to 10 nM,10 to 100 nM,10 to 100 nM,
Cn1c(=O)n(C2CCC(=O)NC2=O)c2cccc(CCCC3CCN(Cc4ccc(C5N=C(NC(=O)c6cnn7ccc(N8C[C@H]9C[C@@H]8CO9)nc67)C(C(F)F)=N5)cc4)CC3)c21 (some centres unmarked) [I-428],1 to 10 nM,,,"DC50 [2, 7]: < 10 nM"
Cn1c(=O)n(C2CCC(=O)NC2=O)c2cccc(CCCCN3CCN(C(=O)[C@H]4CC[C@H](n5cc(NC(=O)c6cnn7ccc(N8C[C@H]9C[C@@H]8CO9)nc67)c(C(F)F)n5)CC4)CC3)c21 (some centres unmarked) [I-472],< 1 nM,< 10 nM,< 10 nM,
Cn1c(=O)n(C2CCC(=O)NC2=O)c2cccc(C#CCCCOC[C@H]3CC[C@H](n4cc(NC(=O)c5cnn6ccc(N7C[C@H]8C[C@@H]7CO8)nc56)c(C(F)F)n4)CC3)c21 (some centres unmarked) [I-446],10 to 100 nM,,,
C[C@@H]1CN(c2ccn3ncc(C(=O)NC4=NC([C@H]5CC[C@H](CN6CCC(CCCc7cccc8c7n(C)c(=O)n8C7CCC(=O)NC7=O)CC6)CC5)N=C4C(F)F)c3n2)C[C@@H](C)O1 (some centres unmarked) [I-537],1 to 10 nM,< 10 nM,< 10 nM,
Cn1c(=O)n(C2CCC(=O)NC2=O)c2cccc(CN3CCN(CC[C@H]4CC[C@H](n5cc(NC(=O)c6cnn7ccc(N8C[C@H]9C[C@@H]8CO9)nc67)c(C(F)F)n5)CC4)CC3)c21 (some centres unmarked) [I-510],1 to 10 nM,< 10 nM,,"IC50 ([4]; OCI-Ly10, 96 h): > 1000 nM"
Cn1c(=O)n(C2CCC(=O)NC2=O)c2cccc(C[C@H]3CC[C@H](N(C)C[C@H]4CC[C@H](n5cc(NC(=O)c6cnn7ccc(N8C[C@H]9C[C@@H]8CO9)nc67)c(C(F)F)n5)CC4)CC3)c21 (some centres unmarked) [I-508],1 to 10 nM,< 10 nM,,"IC50 ([4]; OCI-Ly10, 96 h): > 1000 nM"
CN(C[C@H]1CC[C@H](n2cc(NC(=O)c3cnn4ccc(N5C[C@H]6C[C@@H]5CO6)nc34)c(C(F)F)n2)CC1)C1CCN(Cc2cccc3c2n(C)c(=O)n3C2CCC(=O)NC2=O)CC1 (some centres unmarked) [I-465],< 1 nM,< 10 nM,< 10 nM,
Cn1c(=O)n(C2CCC(=O)NC2=O)c2cccc(CCC(=O)N3CCC4(CCN(C[C@H]5CC[C@H](n6cc(NC(=O)c7cnn8ccc(N9C[C@H]%10C[C@@H]9CO%10)nc78)c(C(F)F)n6)CC5)CC4)CC3)c21 (some centres unmarked) [I-467],< 1 nM,< 10 nM,< 10 nM,
C[C@H]1CN(c2ccn3ncc(C(=O)NC4=NC([C@H]5CC[C@H](CN6CCC(CC#Cc7cccc8c7n(C)c(=O)n8C7CCC(=O)NC7=O)CC6)CC5)N=C4C(F)F)c3n2)C[C@H](C)O1 (some centres unmarked) [I-549],1 to 10 nM,< 10 nM,10 to 100 nM,
Cn1c(=O)n(C2CCC(=O)NC2=O)c2cccc(CCCOC[C@H]3CN(C[C@H]4CC[C@H](n5cc(NC(=O)c6cnn7ccc(N8CCOCC8)nc67)c(C(F)F)n5)CC4)CCO3)c21 (some centres unmarked) [I-430],1 to 10 nM,,,"DC50 [2, 7]: < 10 nM"
C[C@H]1CN(c2ccn3ncc(C(=O)NC4=NC([C@H]5CC[C@H](CN6CCC(CCCc7cccc8c7n(C)c(=O)n8C7CCC(=O)NC7=O)CC6)CC5)N=C4C(F)F)c3n2)C[C@H](C)O1 (some centres unmarked) [I-543],< 1 nM,< 10 nM,10 to 100 nM,
C[C@@H]1CN(c2ccn3ncc(C(=O)NC4=NC([C@H]5CC[C@H](CN6CCC(CC#Cc7cccc8c7n(C)c(=O)n8C7CCC(=O)NC7=O)CC6)CC5)N=C4C(F)F)c3c2)C[C@H](C)O1 (some centres unmarked) [I-530],< 1 nM,< 10 nM,10 to 100 nM,
Cn1c(=O)n(C2CCC(=O)NC2=O)c2cccc(CCCN3CCOC4(CCN(C(=O)[C@H]5CC[C@H](n6cc(NC(=O)c7cnn8ccc(N9C[C@H]%10C[C@@H]9CO%10)nc78)c(C(F)F)n6)CC5)CC4)C3)c21 (some centres unmarked) [I-431],< 1 nM,,,"DC50 [2, 7]: < 10 nM"
Cn1c(=O)n(C2CCC(=O)NC2=O)c2cccc(CCCN3CCOC4(CCN(C[C@H]5CC[C@H](n6cc(NC(=O)c7cnn8ccc(N9C[C@H]%10C[C@@H]9CO%10)nc78)c(C(F)F)n6)CC5)CC4)C3)c21 (some centres unmarked) [I-434],< 1 nM,,,"DC50 [2, 7]: < 10 nM"
Cn1c(=O)n(C2CCC(=O)NC2=O)c2cccc(C#CCOC3CCN(C[C@H]4CC[C@H](n5cc(NC(=O)c6cnn7ccc(N8C[C@H]9CC[C@@H](C8)O9)nc67)c(C(F)F)n5)CC4)CC3)c21 (some centres unmarked) [I-547],1 to 10 nM,< 10 nM,< 10 nM,
C[C@@H]1CN(c2ccn3ncc(C(=O)NC4=NC([C@H]5CC[C@H](CN6CCC(CC#Cc7cccc8c7n(C)c(=O)n8C7CCC(=O)NC7=O)CC6)CC5)N=C4C(F)F)c3c2)C[C@@H](C)O1 (some centres unmarked) [I-528],1 to 10 nM,< 10 nM,10 to 100 nM,
C[C@@H]1CN(c2ccn3ncc(C(=O)Nc4cn([C@H]5CC[C@H](CN6CCC(CCCc7cccc8c7n(C)c(=O)n8C7CCC(=O)NC7=O)CC6)CC5)nc4C(F)F)c3n2)C[C@H](C)O1 (some centres unmarked) [I-540],1 to 10 nM,< 10 nM,10 to 100 nM,
Cn1c(=O)n(C2CCC(=O)NC2=O)c2cccc(CN3CCC4(CC3)CCN(C(=O)c3ccc(C5N=C(NC(=O)c6cnn7ccc(N8C[C@H]9C[C@@H]8CO9)nc67)C(C(F)F)=N5)cc3)CC4)c21 (some centres unmarked) [I-432],1 to 10 nM,,,"DC50 [2, 7]: < 10 nM"
Cn1c(=O)n(C2CCC(=O)NC2=O)c2cccc(CC3CC4(CCN(Cc5ccc(-n6cc(NC(=O)c7cnn8ccc(N9C[C@H]%10C[C@@H]9CO%10)nc78)c(C(F)F)n6)cc5)CC4)C3)c21 (some centres unmarked) [I-466],1 to 10 nM,< 10 nM,100 to 1000 nM,
Cn1c(=O)n(C2CCC(=O)NC2=O)c2ccc(CCCN3CC4(CCN(C(=O)c5ccc(C6N=C(NC(=O)c7cnn8ccc(N9C[C@H]%10C[C@@H]9CO%10)nc78)C(C(F)F)=N6)cc5)CC4)C3)cc21 (some centres unmarked) [I-433],< 1 nM,,,"DC50 [2, 7]: < 10 nM"
Cn1c(=O)n(C2CCC(=O)NC2=O)c2ccc(C#CCOC3CCN(C[C@H]4CC[C@H](n5cc(NC(=O)c6cnn7ccc(N8C[C@H]9C[C@@H]8CO9)nc67)c(C(F)F)n5)CC4)CC3)cc21 (some centres unmarked) [I-483],,,,"IC50 ([1]; read-out: IL-6 Secretion in hPBMC, R848 as stim, t = 20 h: IC50): 1 to 10 nM; IC50 ([4]; 96 h): > 1000 nM"
